In PubChem BioAssay (NCI):
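Results reflect a 48-hour exposure of cells in 96-well plates to compound at five concentrations. Here, GI50 denotes the concentration required for 50% inhibition of growth. TGI: total growth inhibition.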

Experiments:
Experiment in all cases: NCI-60 cell line screen, 48 h
T-47D breast = system: T-47D breast
IGROV1 ovarian = system: IGROV1 ovarian
UACC-62 melanoma = system: UACC-62 melanoma
UO-31 renal = system: UO-31 renal
ACHN renal = system: ACHN renal
CCRF-CEM leukemia = system: CCRF-CEM leukemia
SNB-19 CNS = system: SNB-19 CNS
TK-10 renal = system: TK-10 renal
NCI-H460 lung = system: NCI-H460 lung
NCI-H23 lung = system: NCI-H23 lung
SK-MEL-2 melanoma = system: SK-MEL-2 melanoma
SF-295 CNS = system: SF-295 CNS
MALME-3M melanoma = system: MALME-3M melanoma
HCT-15 colon = system: HCT-15 colon
SNB-75 CNS = system: SNB-75 CNS
OVCAR-3 ovarian = system: OVCAR-3 ovarian
SF-268 CNS = system: SF-268 CNS
KM12 colon = system: KM12 colon
MCF7 breast = system: MCF7 breast
MOLT-4 leukemia = system: MOLT-4 leukemia
UACC-257 melanoma = system: UACC-257 melanoma
PC-3 prostate = system: PC-3 prostate
OVCAR-8 ovarian = system: OVCAR-8 ovarian
SK-MEL-28 melanoma = system: SK-MEL-28 melanoma
LOX IMVI melanoma = system: LOX IMVI melanoma
OVCAR-4 ovarian = system: OVCAR-4 ovarian
CAKI-1 renal = system: CAKI-1 renal
SF-539 CNS = system: SF-539 CNS
HS 578T breast = system: HS 578T breast
M14 melanoma = system: M14 melanoma
SN12C renal = system: SN12C renal
A498 renal = system: A498 renal
HOP-62 NSCLC = system: HOP-62 NSCLC
786-0 renal = system: 786-0 renal
MDA-MB-435 = system: MDA-MB-435
HOP-92 NSCLC = system: HOP-92 NSCLC
U251 CNS = system: U251 CNS
NCI/ADR-RES ovarian = system: NCI/ADR-RES ovarian
A549 NSCLC = system: A549 NSCLC
SW-620 colon = system: SW-620 colon
RPMI-8226 leukemia = system: RPMI-8226 leukemia
SK-MEL-5 melanoma = system: SK-MEL-5 melanoma
DU-145 prostate = system: DU-145 prostate
SR leukemia = system: SR leukemia
HT29 colon = system: HT29 colon
OVCAR-5 ovarian = system: OVCAR-5 ovarian
HL-60(TB) leukemia = system: HL-60(TB) leukemia
HCT-116 colon = system: HCT-116 colon
BT-549 breast = system: BT-549 breast
K-562 leukemia = system: K-562 leukemia
COLO 205 colon = system: COLO 205 colon
SK-OV-3 ovarian = system: SK-OV-3 ovarian
HCC-2998 colon = system: HCC-2998 colon
NCI-H226 lung = system: NCI-H226 lung
NCI-H522 lung = system: NCI-H522 lung
MDA-MB-231 breast = system: MDA-MB-231 breast
RXF 393 renal = system: RXF 393 renal
EKVX NSCLC = system: EKVX NSCLC

Compound: CN1CCN(C2=C(Cl)C(=O)c3ccccc3C2=O)CC1
- GI50 (T-47D breast): 789 nM
- TGI (T-47D breast): 2730 nM
- GI50 (IGROV1 ovarian): 1880 nM
- TGI (IGROV1 ovarian): 4320 nM
- GI50 (UACC-62 melanoma): 1650 nM
- TGI (UACC-62 melanoma): 3110 nM
- GI50 (UO-31 renal): 1220 nM
- TGI (UO-31 renal): 2630 nM
- GI50 (ACHN renal): 1570 nM
- TGI (ACHN renal): 2940 nM
- GI50 (CCRF-CEM leukemia): 2450 nM
- TGI (CCRF-CEM leukemia): 7960 nM
- GI50 (SNB-19 CNS): 4080 nM
- TGI (SNB-19 CNS): 15300 nM
- GI50 (TK-10 renal): 1710 nM
- TGI (TK-10 renal): 3290 nM
- GI50 (NCI-H460 lung): 2950 nM
- TGI (NCI-H460 lung): 9470 nM
- GI50 (NCI-H23 lung): 1720 nM
- TGI (NCI-H23 lung): 3650 nM
- GI50 (SK-MEL-2 melanoma): 3150 nM
- TGI (SK-MEL-2 melanoma): 7960 nM
- GI50 (SF-295 CNS): 4800 nM
- TGI (SF-295 CNS): 15900 nM
- GI50 (MALME-3M melanoma): 1810 nM
- TGI (MALME-3M melanoma): 3510 nM
- GI50 (HCT-15 colon): 1770 nM
- TGI (HCT-15 colon): 3410 nM
- GI50 (SNB-75 CNS): 1910 nM
- TGI (SNB-75 CNS): 4910 nM
- GI50 (OVCAR-3 ovarian): 1390 nM
- TGI (OVCAR-3 ovarian): 2690 nM
- GI50 (SF-268 CNS): 2820 nM
- TGI (SF-268 CNS): 10900 nM
- GI50 (KM12 colon): 5270 nM
- TGI (KM12 colon): 16700 nM
- GI50 (MCF7 breast): 1450 nM
- TGI (MCF7 breast): 3160 nM
- GI50 (MOLT-4 leukemia): 2200 nM
- TGI (MOLT-4 leukemia): 8260 nM
- GI50 (UACC-257 melanoma): 1730 nM
- TGI (UACC-257 melanoma): 3200 nM
- GI50 (PC-3 prostate): 3450 nM
- TGI (PC-3 prostate): 8910 nM
- GI50 (OVCAR-8 ovarian): 1740 nM
- TGI (OVCAR-8 ovarian): 3590 nM
- GI50 (SK-MEL-28 melanoma): 1750 nM
- TGI (SK-MEL-28 melanoma): 3180 nM
- GI50 (LOX IMVI melanoma): 1600 nM
- TGI (LOX IMVI melanoma): 3000 nM
- GI50 (OVCAR-4 ovarian): 1590 nM
- TGI (OVCAR-4 ovarian): 2950 nM
- GI50 (CAKI-1 renal): 1770 nM
- TGI (CAKI-1 renal): 3390 nM
- GI50 (SF-539 CNS): 2080 nM
- TGI (SF-539 CNS): 4470 nM
- GI50 (HS 578T breast): 1840 nM
- TGI (HS 578T breast): 4840 nM
- GI50 (M14 melanoma): 1780 nM
- TGI (M14 melanoma): 3230 nM
- GI50 (SN12C renal): 1610 nM
- TGI (SN12C renal): 3080 nM
- GI50 (A498 renal): 13.2 nM
- TGI (A498 renal): 4250 nM
- GI50 (HOP-62 NSCLC): 2040 nM
- TGI (HOP-62 NSCLC): 5120 nM
- GI50 (786-0 renal): 1770 nM
- TGI (786-0 renal): 3390 nM
- GI50 (MDA-MB-435): 1950 nM
- TGI (MDA-MB-435): 3600 nM
- GI50 (HOP-92 NSCLC): 1520 nM
- TGI (HOP-92 NSCLC): 3070 nM
- GI50 (U251 CNS): 1720 nM
- TGI (U251 CNS): 3280 nM
- GI50 (NCI/ADR-RES ovarian): 2030 nM
- TGI (NCI/ADR-RES ovarian): 4570 nM
- GI50 (A549 NSCLC): 3420 nM
- TGI (A549 NSCLC): 11200 nM
- GI50 (SW-620 colon): 1670 nM
- TGI (SW-620 colon): 3230 nM
- GI50 (RPMI-8226 leukemia): 3090 nM
- TGI (RPMI-8226 leukemia): 9610 nM
- GI50 (SK-MEL-5 melanoma): 1550 nM
- TGI (SK-MEL-5 melanoma): 2930 nM
- GI50 (DU-145 prostate): 1740 nM
- TGI (DU-145 prostate): 3110 nM
- GI50 (SR leukemia): 3420 nM
- TGI (SR leukemia): > 27300 nM
- GI50 (HT29 colon): 1940 nM
- TGI (HT29 colon): 3700 nM
- GI50 (OVCAR-5 ovarian): 2030 nM
- TGI (OVCAR-5 ovarian): 4180 nM
- GI50 (HL-60(TB) leukemia): 2390 nM
- TGI (HL-60(TB) leukemia): 5840 nM
- GI50 (HCT-116 colon): 1420 nM
- TGI (HCT-116 colon): 2750 nM
- GI50 (BT-549 breast): 1970 nM
- TGI (BT-549 breast): 4750 nM
- GI50 (K-562 leukemia): 1650 nM
- TGI (K-562 leukemia): 7570 nM
- GI50 (COLO 205 colon): 1510 nM
- TGI (COLO 205 colon): 2900 nM
- GI50 (SK-OV-3 ovarian): 9110 nM
- TGI (SK-OV-3 ovarian): 22400 nM
- GI50 (HCC-2998 colon): 2050 nM
- TGI (HCC-2998 colon): 4510 nM
- GI50 (NCI-H226 lung): 3310 nM
- TGI (NCI-H226 lung): 10400 nM
- GI50 (NCI-H522 lung): 380 nM
- TGI (NCI-H522 lung): 1640 nM
- GI50 (MDA-MB-231 breast): 1840 nM
- TGI (MDA-MB-231 breast): 3990 nM
- GI50 (RXF 393 renal): 1590 nM
- TGI (RXF 393 renal): 2950 nM
- GI50 (EKVX NSCLC): 3050 nM
- TGI (EKVX NSCLC): 11000 nM
